Test results published in publication PMC6141003 (Biochimie, 2017).

Assays:
GLUT1 [1] = target: T1, GLUT1 (Mus musculus, UniProt P17809); test: dose-dependent competition of [3H]-2DG uptake in L929 fibroblasts; type: cell-based
T1 sequence (P17809 1-492): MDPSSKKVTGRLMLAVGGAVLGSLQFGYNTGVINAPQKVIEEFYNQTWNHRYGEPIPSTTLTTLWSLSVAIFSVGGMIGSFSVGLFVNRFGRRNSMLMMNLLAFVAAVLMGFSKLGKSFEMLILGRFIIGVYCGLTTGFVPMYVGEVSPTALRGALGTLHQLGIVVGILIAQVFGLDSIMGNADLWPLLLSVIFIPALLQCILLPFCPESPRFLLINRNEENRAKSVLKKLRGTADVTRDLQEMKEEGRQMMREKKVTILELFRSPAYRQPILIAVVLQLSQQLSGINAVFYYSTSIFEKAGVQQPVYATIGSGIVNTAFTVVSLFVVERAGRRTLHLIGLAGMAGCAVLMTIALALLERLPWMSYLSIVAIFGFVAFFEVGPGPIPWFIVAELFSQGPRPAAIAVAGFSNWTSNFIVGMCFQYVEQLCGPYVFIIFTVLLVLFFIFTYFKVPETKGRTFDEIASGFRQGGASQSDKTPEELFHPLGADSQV

GLUT1 [2] = target: T1, GLUT1; test: [3H]-2-deoxyglucose uptake in L929 fibroblasts; type: cell-based

OC[C@H]1OC(O)[C@H](O)[C@@H](O)[C@@H]1O (some centres unmarked) [glucose]
dose-dependent competition of [3H]-2DG uptake in L929 fibroblasts (GLUT1 [1]): glucose reduces 2DG uptake in a dose-dependent manner, and that caffeine adds to the inhibitory effects of glucose

Cn1c(=O)c2c(ncn2C)n(C)c1=O [caffeine]
IC50 (GLUT1 [2]): ~1400 µM
